# Patent US6420428B1, “Treatment and prevention of hepatic disorders” (The Regents of the University of California, priority 1996, dated 2002)
# Entries after “also recorded” stand apart in the source; their conditions may differ.
# What was measured:
# [1] = nutritional- or CCl4-induced injury; cited from earlier work
# [2] = system: HCV; test: HCV RNA by quantitative PCR in patients; assay type: in vivo, human; settings: 1,200 IU/day, 8 weeks
# From the text: (§1) Patients with chronic active hepatitis C and severe necro-inflammatory changes without cirrhosis (as established by liver biopsy) were studied at the University of California San Diego Liver Clinic. Six patients (2 women and 4 men; 47±8 years) who had not responded to interferon α-2b therapy (i.e., who were refractory) and with no other co-morbid illnesses received 1,200 IU/day of d-α-tocopherol orally for 8 weeks. On completion of the study, all patients underwent a liver biopsy; liver sections from patients with chronic hepatitis C and from individuals without liver disease were provided by Dr. C. Behling at UCSD.
# (§2) Liver tissue obtained from biopsies was studied, as described below, by immunohistochemistry and in situ hybridization with specific riboprobes. Carbonyl modifications were assayed in plasma proteins, as an index of oxidative stress. [Palinski et al., Arteriosclerosis 10:325-35 (1990)]. Serum alanine aminotransferase (ALT) was determined with a (Hitachi) analyzer, plasma d-α-tocopherol by high pressure chromatography, and HCV RNA by quantitative PCR. [See U.S. Pat. Nos. 4,683,202 and 4,683,195, hereby incorporated by reference].
# [3] = system: hepatic stellate cells; test: Activation of cultured hepatic stellate cells (α-SMA immunohistochemistry); assay type: cell-based, Sprague-Dawley rats; settings: for effect on stellate cell activation / increased α-SMA expression induced by collagen type I matrix: cultured on collagen type I matrix
# Description: Stellate cells were prepared from male Sprague-Dawley (400-500 grams) rats (Charles River Breeding Labs) by in situ perfusion of the liver and single-step density Nycodenz® gradient (Accurate Chemical & Scientific Corp.). [See Bedossa et al., Hepatology 19(5):1262-71 (1994); Brenner et al., Mol. Biol. Med. 7:105-15 (1990)]. The cells were mixed with 9.5 mL Hank's buffer containing 3 g/L BSA and 8 mL of 28.7% (w/v) Nycodenz® in sodium-free Hank's buffer. The gradient was generated by placing 6 mL of the Hank's/BSA solution on top of the liver cell mixture in a 50 mL centrifugation tube. […] For TGFα-induced stellate cell activation, cells were cultured on plastic in serum-free defined media (Fibroblast basal medium with Insulin, Clonetics). Fibroblast basal medium is similar to F12 medium, but contains folinic acid, Hepes buffer with NaOH, MgSO4, and adenine instead of folic acid, NaHCO3, MgCl2 and hypoxanthine. Cells were plated on 60-mm dishes coated with collagen type 1, EHS matrix (Matrigel; Collaborative Bio-medical Products) or plastic (according to the experimental design), for the initial seeding of fat-storing cells at a density of 2-3×10^6. Matrigel's major components are […], collagen IV, proteoglycans, entactin and nidogen; it also contains:TGFβ, fibroblast growth factor, and tissue plasminogen activator. […] Medium was changed every 24 h for all conditions. The sequences of c-myb oligonucleotide phosphorothioate were: sense ([NT] ID NO:3) and antisense ([NT] ID NO:4). Stellate cells were identified by their typical autofluorescence at 328 nm excitation wavelength, staining of lipid droplets by oil red, and immunohistochemistry with a monoclonal antibody against desmin. [Bedossa et al., Hepatology 19(5):1262-71 (1994)]. Cells, fixed with acetone:methanol (50:50) at -20° C. for 20 min., and liver tissue were immunostained as described, e.g., by Buck et al., EMBO J. 13:851-60 (1994). Antibodies directed against c-myb, NFkB65, α-SMA, or PCNA were obtained from Sigma, 5 Prime 3 Prime, and Oncogene Sciences. Fluorescent labels were visualized using a dual channel Zeiss microscope and a computer imaging system (Image 1 software). A phase-contrast microscope was utilized to visualize antigens with alkaline phosphatase secondary antibodies (Vector Laboratories). Cytochromes utilized were alkaline phosphatase with fast green as counterstain, and FITC with Evans blue as counterstain (Sigma). The number of PCNA (+), c-myb(+), or NFkB(+), α-SMA(+) cells was expressed as a percentage of total cells. At least 1,000 cells were analyzed for each experimental point, and a minimum of two observers analyzed each immunohistochemical experiment independently. Negative control samples were processed in parallel under the same conditions, but with omission of the first antibody. The role of lipid peroxidation on stellate cell activation was examined. Stellate cell activation was induced in quiescent cells growing on a EHS matrix; inhibition of this phenotype was evaluated with cells activated by collagen type I matrix. [See Davis et al., J. Biol. Chem. 262:10280-86 (1987)]. When stellate cell activation was induced by TGFα as described, e.g., by Pinzani et al., J. Clin. […] Stellate cell activation was assessed by the expression of α-SMA (as described in Example 1) and S-phase by the presence of PCNA. [Bravo et al., Nature (Lond.) 326:515-17 (1987)]. […] SEM<30% of the mean for all conditions).
# [4] = system: hepatic stellate cells; test: Proliferation of cultured hepatic stellate cells (nuclear expression of PCNA, S-phase); assay type: cell-based, Sprague-Dawley rats; settings: for effect on stellate cell cycle activation (PCNA) induced by collagen type I matrix or TGFα: 50 μM
# Description: Stellate cells were prepared from male Sprague-Dawley (400-500 grams) rats (Charles River Breeding Labs) by in situ perfusion of the liver and single-step density Nycodenz® gradient (Accurate Chemical & Scientific Corp.). […] The cells were mixed with 9.5 mL Hank's buffer containing 3 g/L BSA and 8 mL of 28.7% (w/v) Nycodenz® in sodium-free Hank's buffer. The gradient was generated by placing 6 mL of the Hank's/BSA solution on top of the liver cell mixture in a 50 mL centrifugation tube. After centrifugation (1000 g, 4° C., 20 min) the cells were aspirated from above the interface and washed twice in serum-free DME regular glucose medium.
# Thereafter, the cells were cultured under an atmosphere of 5% CO2, 95% air in tissue culture dishes using DME medium containing penicillin G 100 units/mL, streptomycin sulfate 100 μg/mL and 10% fetal calf serum. For TGFα-induced stellate cell activation, cells were cultured on plastic in serum-free defined media (Fibroblast basal medium with Insulin, Clonetics). Fibroblast basal medium is similar to F12 medium, but contains folinic acid, Hepes buffer with NaOH, MgSO4, and adenine instead of folic acid, NaHCO3, MgCl2 and hypoxanthine. Cells were plated on 60-mm dishes coated with collagen type 1, EHS matrix (Matrigel; Collaborative Bio-medical Products) or plastic (according to the experimental design), for the initial seeding of fat-storing cells at a density of 2-3×10^6. […]
# The number of PCNA (+), c-myb(+), or NFkB(+), α-SMA(+) cells was expressed as a percentage of total cells. At least 1,000 cells were analyzed for each experimental point, and a minimum of two observers analyzed each immunohistochemical experiment independently. […]
# The role of lipid peroxidation on stellate cell activation was examined. Stellate cell activation was induced in quiescent cells growing on a EHS matrix; inhibition of this phenotype was evaluated with cells activated by collagen type I matrix. […] Stellate cell activation was assessed by the expression of α-SMA (as described in Example 1) and S-phase by the presence of PCNA.
# [5] = Carbonyl modifications of plasma proteins (index of oxidative stress) in patients; assay type: in vivo, human; settings: 1,200 IU/day, 8 weeks; before treatment 2.7±0.4; P<0.001
# From the text: as §1, §2
# [6] = system: fibrogenesis cascade in the liver of patients with chronic hepatitis C; test: Liver biopsy immunohistochemistry and in situ hybridization in patients with chronic hepatitis C; assay type: in vivo, human; settings: 8 weeks
# Description: Antisera to MDA-lysine adducts were prepared by a variation of the technique described by Houglum et al., J Clin Invest 86:1991-98 (1990). Briefly, rabbit LDS was purified and modified with MDA, and the modified autologous LDL was used to immunize rabbits.
# Sections from paraffin-embedded blocks were deparaffinized, passed through graded series of alcohol, rehydrated in PBS, and stained with hematoxylin and eosin. Immunohistochemistry was performed using the avidin-biotin complex-alkaline phosphatase, peroxidase systems (Vector Laboratories, ABC-peroxidase system) or fluorescein. Sections were immunostained with antibodies specific for MDA-protein adducts, α-smooth muscle actin (Sigma), or c-myb.
# The antisera was used with fluorochrome-conjugated secondary antibodies. Fluorescent labels were visualized using a dual filter Zeiss microscope, while a phase-contrast microscope was used to visualize antigens with hematoxilin/eosin or alkaline phosphatase secondary antibodies.
# Hybridization, RNase digestion of mismatched sequences, and immunological detection of the digoxigenin-labeled RNA probes were performed as described by Houglum et al., Am. […] Briefly, single stranded RNA probes in both sense and antisense orientations were transcribed in vitro from the plasmid pHuCol, which contains a 300 base pair cDNA fragment of the human collagen α1(I) gene, and labeled with digoxigenin-11-UTP. […] For the labelling procedure, 2 μg of linearized plasmid were transcribed in a 30 μL reaction volume containing 40 mM tris(hydroxymethyl)aminomethane (Tris).HCl, pH 7.9; 6 mM MgCl2; 2 mM apermidine.HCl; 10 mM dithiothreitol, 10 mM ATP, CTP, and GTP; 6.5 mM UTP; and 3.5 mM digoxigenin-11-UTP with 309 units of T3 or T7 DNA polymerase. The specificity of the probe was assessed by in situ hybridization of human skin. All sections were processed using same batches of probe and reagents and using sense and antisense in parallel.
# [7] = system: collagen expression; settings: injected into mice; cited from earlier work
# [8] = Plasma d-α-tocopherol by high pressure chromatography in patients; assay type: in vivo, human; settings: 1,200 IU/day orally for 8 weeks; before treatment 9.6±4.3; P<0.003
# From the text: as §1, §2
# [9] = in vivo; cited from earlier work
# [10] = system: cyclooxygenase; settings: cited from earlier work
# [11] = molecular target: T1, 5-lipoxygenase (Homo sapiens, UniProt P09917); settings: cited from earlier work
# T1 sequence (P09917 1-674): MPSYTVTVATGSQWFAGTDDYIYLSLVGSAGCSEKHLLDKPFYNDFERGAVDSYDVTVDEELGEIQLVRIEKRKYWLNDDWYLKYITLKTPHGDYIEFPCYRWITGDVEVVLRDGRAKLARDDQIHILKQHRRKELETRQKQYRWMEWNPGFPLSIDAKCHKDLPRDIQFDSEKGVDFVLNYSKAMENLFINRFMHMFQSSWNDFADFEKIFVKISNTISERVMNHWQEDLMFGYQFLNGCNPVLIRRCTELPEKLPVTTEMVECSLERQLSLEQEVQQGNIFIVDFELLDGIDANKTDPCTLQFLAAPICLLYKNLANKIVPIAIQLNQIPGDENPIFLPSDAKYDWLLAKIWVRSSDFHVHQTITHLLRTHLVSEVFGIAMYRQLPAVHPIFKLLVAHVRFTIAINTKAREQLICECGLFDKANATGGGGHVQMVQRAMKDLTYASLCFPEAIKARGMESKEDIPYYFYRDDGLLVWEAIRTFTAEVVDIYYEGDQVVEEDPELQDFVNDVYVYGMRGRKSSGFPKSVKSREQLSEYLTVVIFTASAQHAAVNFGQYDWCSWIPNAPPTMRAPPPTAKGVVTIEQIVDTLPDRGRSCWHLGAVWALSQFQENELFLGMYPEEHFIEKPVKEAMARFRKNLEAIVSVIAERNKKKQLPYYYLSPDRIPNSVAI
# [12] = system: chronic hepatitis B or C; settings: in vivo; cited from earlier work
# [13] = system: phospholipase A2; settings: cited from earlier work
# [14] = system: fatty acid cyclooxygenase; settings: cited from earlier work
# [15] = molecular target: T1, 5-lipoxygenase; settings: cited from earlier work; remark: listed apart in the source
# [16] = system: human polymorphonuclear leukocytes; settings: stimulated with calcium ionophore A23187; cited from earlier work
# [17] = system: cultured stellate cells; settings: cited from earlier work
# [18] = cited from earlier work
compound,measurement,setting,value
CCCCC[C@H](O)/C=C/[C@H]1[C@H](O)CC(=O)[C@@H]1C/C=C\CCCC(=O)O [prostaglandin E2],hepatocellular necrosis,[1],ameliorate hepatocellular necrosis
Cc1c(C)c2c(c(C)c1O)CC[C@@](C)(CCC[C@H](C)CCC[C@H](C)CCCC(C)C)O2 [d-α-tocopherol],effect on HCV titres,[2],did not significantly affect
same,effect on stellate cell activation / increased α-SMA expression induced by collagen type I matrix,[3]; 50 μM,blocked the induction of stellate cell activation by collagen type I matrix; also recorded: abolished
same,effect on stellate cell cycle activation (PCNA) induced by collagen type I matrix or TGFα,[4],blocked the activation of the stellate cell cycle
same,hepatocellular necrosis,[1],ameliorate hepatocellular necrosis
same,carbonyl modified plasma proteins after treatment,[5],1.5 ± 0.4 µmol/mL
same,expression of c-myb in stellate cells,"[6]; 1,200 IU/day orally",diminished expression of c-myb in stellate cells
same,stellate cell activation (α-SMA) in liver sections,"[6]; 1,200 IU/day orally",lesser degree of stellate cell activation
same,expression of collagen α1(I) mRNA in stellate cells,"[6]; 1,200 IU/day orally, in situ hybridization",lower expression of collagen al(I) mRNA in stellate cells
same,MDA-adducts in liver sections,"[6]; 1,200 IU/day orally, patients refractory to interferon",decreased MDA-adducts
same,effect on histologic degree of hepatocellular inflammation,"[6]; 1,200 IU/day",did not significantly affect
same,collagen expression by the skin,[7],did not inhibit collagen expression by the skin
same,collagen expression in the liver and tendons,[7],decreases collagen expression in the liver and tendons
same,plasma levels of d-α-tocopherol after treatment,[8],27±6.8
interferon alpha,patients requiring discontinuance or dosing adjustment,[9],20-50%
"C#CCCCC(=O)c1cc(C(C)(C)C)c(O)c(C(C)(C)C)c1 [tebufelone, 4-(5′-hexynoyl)-2,6-di-tert-butylphenol]",cyclooxygenase inhibition,[10],reversibly inhibits
same,5-lipoxygenase inhibition,[11],reversibly inhibits
O=CCC=O [malondialdehyde],activation of hepatic stellate cells on EHS matrix,"[3]; 50 μM, data not shown","able to activate stellate cells, but to a lesser extent"
same,activation of hepatic stellate cells on EHS matrix,[3]; 200 μM,markedly stimulated the activation of hepatic stellate cells
same,cells (+) for α-SMA,"[3]; stellate cells cultured on plastic, 58% without malondialdehyde, P<0.05",93%
same,stellate cell entry into S-phase,"[4]; 200 μM, EHS matrix",stimulated stellate cell entry into S-phase
NC(=O)c1ncn([C@@H]2O[C@H](CO)[C@@H](O)[C@H]2O)n1 [ribovirin],effectiveness,[12],neither has been shown to be very effective
"CN1CSC(=Cc2cc(C(C)(C)C)c(O)c(C(C)(C)C)c2)C1=O [LY-256548, 5-{[3,5-bis(1,1-dimethylethyl)-4-hydroxyphenyl]methylene}-4-N-methylthiazolidine]",enzymatic activity of phospholipase A2,[13],inhibit
same,enzymatic activity of fatty acid cyclooxygenase,[14],inhibit
same,enzymatic activity of 5-lipoxygenase,[15],inhibit
same,leukotriene B4 production,[16],inhibit leukotriene B4 production
"CC(C)(C)c1cc(C=C2SCNC2=O)cc(C(C)(C)C)c1O [LY-178002, 5-{[3,5-bis(1,1-dimethylethyl)-4-hydroxyphenyl]methylene}-4-thiazolidine]",enzymatic activity of phospholipase A2,[13],inhibit
same,enzymatic activity of fatty acid cyclooxygenase,[14],inhibit
same,enzymatic activity of 5-lipoxygenase,[15],inhibit
same,leukotriene B4 production,[16],inhibit leukotriene B4 production
CCCOC(=O)c1cc(O)c(O)c(O)c1 [propyl gallate],inhibition of activation and collagen expression/production,[17],success in inhibiting activation and collagen production
"Cc1cc(C(C)(C)C)c(O)c(C(C)(C)C)c1 [BHT, 2,6-Bis(1,1-dimethylethyl)-4-methylphenol]",solubility in alcohols,[18]; alcohols like ethanol and isopropanol,soluble
same,solubility in water,[18]; water,insoluble
same,effect on stellate cell activation / increased α-SMA expression induced by collagen type I matrix,[3]; 50 μM,blocked the induction of stellate cell activation by collagen type I matrix; also recorded: abolished
same,effect on stellate cell cycle activation (PCNA) induced by collagen type I matrix or TGFα,[4],blocked the activation of the stellate cell cycle
CC(C)(Sc1cc(C(C)(C)C)c(O)c(C(C)(C)C)c1)Sc1cc(C(C)(C)C)c(O)c(C(C)(C)C)c1 [probucol],inhibition of activation and collagen expression/production,[17],success in inhibiting activation and collagen production
NC1=NN(c2cccc(C(F)(F)F)c2)CC1 [BW-755c],inhibition of activation and collagen expression/production,[17],success in inhibiting activation and collagen production
